# Patent publication US20160024203A1, “METHODS OF PRODUCING ANTIBODIES IN YEAST” (BRISTOL-MYERS SQUIBB COMPANY, priority 2013, published 2016)
# Key:
# P. pastoris = assay: Effects of hydroxyurea on cell growth and antibody productivity in P. pastoris fermentation (Run 01MAY11); assay type: cell-based, Pichia pastoris; conditions: for Sup Titer (Normalized): anti-IL-6 antibody supernatant titer; for Sup Titer (Normalized) / WB Titer (Normalized): lots T5, T6 and T10 + hydroxyurea 2.6-2.8 g/L; for WCW: lots T5, T6 and T10 + hydroxyurea 2.6-2.8 g/L added 5 hours after feed start, triplicate bioreactors; for WB Titer (Normalized): whole broth titer = supernatant titer*(1-WCW/1000)
# Experimental: The glucose and ethanol were measured by YSI 2700 (YSI Incorporated, Yellow Springs, Ohio), O2 and CO2 of the exhaust line were measured by Questor GP Process Mass Spectrometer (ABB Extrel, Pittsburgh, Pa.) and the RQ value was calculated using below Equation [1]. The wet cell weight (WCW) was measured by centrifuging one (1) milliliter (mL) fermentation broth at 13,200 rpm for 10 minutes, weighing pellet, and calculated ratio of pellets weight (g) over volume (mL). The supernatant titer (g/L) was measured by the HPLC method and the whole broth (WB) titer was then calculated by below Equation[2]. Non reduced and reducing SDS-PAGE gels are performed following standard method.
# WB_Titer=Supernatant_Titer*(1−WCW/1000)
# The treatment cultures were operated the same way plus adding hydroxyurea 5 hours after feed start.
# [1] = system: suspended S. cerevisiae cells; conditions: 5.7 g/L hydroxyurea; cited from earlier work
structure (smiles),measurement,setting,value
NC(=O)NO [Hydroxyurea],average whole broth titer,"P. pastoris; 90 hours run time, three hydroxyurea treatment lots, three control lots 59.8",75 normalized units
same,WCW reached/maintained by hydroxyurea treatment lots,"P. pastoris; after peak cell density at 30-40 hours, control lots ~400 g/Kg, FIG. 8",~450 g/kg
same,Sup Titer (Normalized),P. pastoris; age 59 h,83.9 ± 2.2 Normalized
same,WCW,P. pastoris; age 59 h,437 ± 17 g/kg
same,WB Titer (Normalized),P. pastoris; age 59 h,47.2 ± 1.8 Normalized
same,Sup Titer (Normalized),P. pastoris; age 90 h,123.3 ± 5.8 Normalized
same,WCW,P. pastoris; age 90 h,392 ± 20 g/kg
same,WB Titer (Normalized),P. pastoris; age 90 h,75.0 ± 2.7 Normalized
same,reduction of cell mass,[1],50%
same,reduction of total polysaccharide content,[1],65%
same,synthesis of protein and RNA,[1],not adversely affected
